Test results taken from patent US11612602B2, “Heterocyclic compounds and uses as anticancer agents” (ACEA Therapeutics, Inc., priority 2012, dated 2023).

What was measured:
Type in all cases: cell-based
[1] = system: A549 cells; test: A549 cell viability assay (cytotoxicity, xCelligence RTCA); conditions: Homo sapiens, 72 h, 3 days
Protocol: (§1) All cell lines were obtained from the American Type Culture Collection and were maintained at 37° C. with 5% CO2, in media supplemented with 10% fetal bovine serum and 1% L-glutamine-penicillin-streptomycin. H1975, HCC827 and A549 cells were cultured with RPMI 1640 media. A431 and Hela cells were maintained in Dulbecco's Modification of Eagle's Medium. EGF (R&D), EGF inhibitors were resuspended and stored according to the manufacturers' instructions.
(§2) Cells were seeded in 96-well E-Plate devices, and attachment, spreading, and proliferation were monitored using the xCelligence RTCA system. After 20 h of RTCA profiling, the cells were treated with the indicated compounds prediluted in growth media to a final maximal DMSO concentration of 0.1%, and the responses were measured at 30-min intervals for 3 days. For each cell type the optimal cell concentration was chosen based on their respective proliferation pattern.

[2] = system: HeLa cells; test: HeLa cell viability assay (cytotoxicity, xCelligence RTCA); conditions: Homo sapiens, 72 h, 3 days
Protocol: as §1, §2

[3] = system: EGFR in H1975 cells; test: H1975 EGF stimulation assay (impedance, xCelligence RTCA); conditions: Homo sapiens, NCI-H1975, 40 min pretreatment, EGF 30 ng/mL
Protocol: as §1
(§3) Impedance measurements were taken using the xCelligence RTCA system (Roche Applied Science) instrument using the E-plates 96-well device from the same company. Cells were trypsinized and seeded on a 96-well E-plate at a density of 15000 cells per well in a volume of 0.1 ml. Cells were allowed to attach and proliferate overnight. Prior to compound treatment, H1975 cells were serum starved in RPMI-1640 for a total of 4 h. Following serum starvation, the cells were pretreated with compounds or vehicle for 40 min and then stimulated with EGF at 30 ng/mL. Throughout the experimental process, the cells were continually monitored, and the changes in impedance were acquired with the xCelligence RTCA system. After EGF treatment, data acquisition was done every minute for up to 2 h. For each cell type the optimal cell concentration was chosen based on their respective proliferation pattern.

[4] = system: EGFR in A431 cells; test: A431 EGF stimulation assay (impedance, xCelligence RTCA); conditions: Homo sapiens, A-431
Protocol: as §1, with “H1975, HCC827 and A549 cells were cultured with RPMI 1640 media.” left out
as §3, with “Prior to compound treatment, H1975 cells were serum starved in RPMI-1640 for a total of 4 h.” left out

[5] = target: T1, EGFR (T790M/L858R), H1975 cell (Homo sapiens, UniProt P00533, L858R/T790M); test: ELISA assay of EGFR phosphorylation in H1975 cells; conditions: for IC50: EGFR pY1068 sandwich ELISA, 2 hours compound in serum-free medium; for Selectivity (WT/T790M): ratio of IC50 A431 cell (WT) to IC50 H1975 cell (T790M/L858R)
T1 construct: endogenous in cells; host or cells: H1975
T1 sequence (P00533 25-1210 T790M/L858R): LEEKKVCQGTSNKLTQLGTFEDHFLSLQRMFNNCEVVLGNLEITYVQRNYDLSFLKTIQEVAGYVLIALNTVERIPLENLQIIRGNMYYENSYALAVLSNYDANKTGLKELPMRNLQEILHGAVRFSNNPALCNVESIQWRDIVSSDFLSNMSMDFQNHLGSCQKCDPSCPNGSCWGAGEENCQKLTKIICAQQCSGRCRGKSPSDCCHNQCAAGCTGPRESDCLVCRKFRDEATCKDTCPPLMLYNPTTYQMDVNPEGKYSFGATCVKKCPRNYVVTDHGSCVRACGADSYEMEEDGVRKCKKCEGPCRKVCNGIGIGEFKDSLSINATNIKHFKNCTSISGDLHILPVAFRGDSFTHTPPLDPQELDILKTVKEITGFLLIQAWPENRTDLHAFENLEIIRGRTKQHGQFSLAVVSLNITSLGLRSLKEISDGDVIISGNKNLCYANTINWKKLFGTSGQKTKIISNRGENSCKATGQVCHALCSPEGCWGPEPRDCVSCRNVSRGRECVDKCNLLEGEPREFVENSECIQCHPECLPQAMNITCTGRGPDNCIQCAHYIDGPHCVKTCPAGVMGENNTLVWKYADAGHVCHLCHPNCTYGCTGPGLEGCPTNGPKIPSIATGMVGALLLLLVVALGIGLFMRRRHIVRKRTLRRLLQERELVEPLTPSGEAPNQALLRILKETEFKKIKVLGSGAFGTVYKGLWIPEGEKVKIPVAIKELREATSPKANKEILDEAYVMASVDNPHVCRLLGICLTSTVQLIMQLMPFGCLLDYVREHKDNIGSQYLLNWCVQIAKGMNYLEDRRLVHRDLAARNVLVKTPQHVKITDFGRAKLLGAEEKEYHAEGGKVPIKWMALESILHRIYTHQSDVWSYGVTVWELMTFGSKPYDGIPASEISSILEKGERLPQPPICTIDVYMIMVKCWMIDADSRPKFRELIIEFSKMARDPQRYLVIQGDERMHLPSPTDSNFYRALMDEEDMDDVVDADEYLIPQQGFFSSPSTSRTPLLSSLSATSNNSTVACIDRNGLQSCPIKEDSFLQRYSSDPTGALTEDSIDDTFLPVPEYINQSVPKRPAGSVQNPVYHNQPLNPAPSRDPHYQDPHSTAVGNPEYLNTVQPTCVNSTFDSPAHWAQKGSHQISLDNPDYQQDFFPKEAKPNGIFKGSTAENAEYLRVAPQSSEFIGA
Protocol: (§4) H1975 and A431 cells were seeded onto each well of a 96-well plate at a density of 4×10^4 cells per well. After 24 hours of growth in serum-containing media, cells were treated with test compound in serum-free medium for 2 hours. A431 cells were stimulated with 30 ng/mL EGF during the last 15 minutes of compound treatment. Cells were washed with ice cold PBS before extraction with 100 μl per well cell lysis buffer. Phosphorylation of EGFR was measured using a sandwich ELISA assay with the pair of phospho-specific EGFR (pY1068) and total EGFR antibodies.

[6] = target: T2, EGFR (WT), A431 cell (Homo sapiens, UniProt P00533); test: ELISA assay of EGFR phosphorylation in A431 cells; conditions: EGFR pY1068 sandwich ELISA, 2 hours compound, 30 ng/mL EGF last 15 minutes
T2 construct: endogenous in cells; host or cells: A431
T2 sequence (P00533 25-1210): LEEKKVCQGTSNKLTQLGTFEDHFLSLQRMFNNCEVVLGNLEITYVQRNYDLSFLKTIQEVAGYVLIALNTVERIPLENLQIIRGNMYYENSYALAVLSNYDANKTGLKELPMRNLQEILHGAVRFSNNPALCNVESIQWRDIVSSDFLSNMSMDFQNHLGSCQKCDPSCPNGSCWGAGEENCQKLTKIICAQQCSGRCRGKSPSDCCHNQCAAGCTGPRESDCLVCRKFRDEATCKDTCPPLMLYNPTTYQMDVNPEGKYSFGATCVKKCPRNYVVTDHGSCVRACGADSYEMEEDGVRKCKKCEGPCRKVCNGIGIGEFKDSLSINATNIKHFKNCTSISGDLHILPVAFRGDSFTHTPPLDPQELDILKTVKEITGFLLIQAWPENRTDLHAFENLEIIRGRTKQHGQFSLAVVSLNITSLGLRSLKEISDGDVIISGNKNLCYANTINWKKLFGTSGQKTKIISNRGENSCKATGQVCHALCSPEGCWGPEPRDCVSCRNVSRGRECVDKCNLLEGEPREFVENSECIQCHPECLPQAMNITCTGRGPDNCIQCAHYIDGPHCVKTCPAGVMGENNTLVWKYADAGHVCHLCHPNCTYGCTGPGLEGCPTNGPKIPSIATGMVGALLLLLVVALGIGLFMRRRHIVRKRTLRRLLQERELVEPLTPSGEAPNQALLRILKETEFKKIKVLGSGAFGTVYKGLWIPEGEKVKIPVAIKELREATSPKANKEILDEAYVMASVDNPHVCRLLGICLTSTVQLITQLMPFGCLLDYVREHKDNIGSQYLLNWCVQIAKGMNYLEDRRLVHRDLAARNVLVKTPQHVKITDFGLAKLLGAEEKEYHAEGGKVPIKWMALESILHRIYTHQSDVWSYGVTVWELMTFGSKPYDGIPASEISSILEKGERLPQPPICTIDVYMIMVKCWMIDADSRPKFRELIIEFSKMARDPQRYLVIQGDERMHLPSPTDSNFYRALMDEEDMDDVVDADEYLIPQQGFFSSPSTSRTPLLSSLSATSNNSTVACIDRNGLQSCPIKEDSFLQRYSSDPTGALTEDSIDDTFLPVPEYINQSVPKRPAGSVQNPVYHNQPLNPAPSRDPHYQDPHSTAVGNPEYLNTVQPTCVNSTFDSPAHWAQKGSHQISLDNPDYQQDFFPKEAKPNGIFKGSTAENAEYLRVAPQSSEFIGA
Protocol: as §4

[7] = system: H1975 cells; test: H1975 cell viability assay (cytotoxicity, xCelligence RTCA); conditions: 3 days
Protocol: as §1, §2

Row | IC50 [3] [µM] | IC50 [4] [µM] | IC50 [5] [µM] | Selectivity (WT/T790M) [5] | IC50 [6] [µM] | Structure (SMILES) | IC50 [1] [µM] | IC50 [2] [µM] | H1975 cell viability assay (under head IC50 (uM), results in words) [7]
1 | 1.9 | 4.1 | 0.34 | 32 | 10.8 | C=CC(=O)Nc1cccc(C(F)(F)c2nc(Nc3ccc(N4CCN(C)CC4)cc3OC)nc3[nH]cnc23)c1 [Compound 13b, N-(3-(difluoro(2-(2-methoxy-4-(4-methylpiperazin-1-yl)phenylamino)-9H-purin-6-yl)methyl)phenyl)acrylamide] | > 20 | > 20 | 
2 |  |  | 0.099 | 72.6 | 7.17 | C=CC(=O)Nc1cccc(C(F)(F)c2nc(Nc3ccc(N4CCN(C)CC4)nc3)ncc2F)c1 [Compound 33] |  |  | 
3 | 1.7 | 2.4 | 0.17 | 82 | 13.7 | C=CC(=O)Nc1cccc(C(F)(F)c2nc(Nc3ccc(N4CCN(C)CC4)cc3)nc3[nH]cnc23)c1 [Compound 13a, N-(3-(difluoro(2-(4-(4-methylpiperazin-1-yl)phenylamino)-9H-purin-6-yl)methyl)phenyl)acrylamide] | > 20 | > 2.2 | Active
4 |  |  | 0.158 | >127 | > 20 | C=CC(=O)Nc1cccc(C(F)(F)c2nc(Nc3ccc(N4CCN(C)CC4)cc3OC)nc3[nH]ccc23)c1 [Compound 28d, N-(3-(difluoro(2-(2-methoxy-4-(4-methylpiperazin-1-yl)phenylamino)-7H-pyrrolo[2,3-d]pyrimidin-4-yl)methyl)phenyl)acrylamide] |  |  | 
5 |  |  | 0.041 | 17.3 | 0.71 | C=CC(=O)Nc1cccc(C(F)(F)c2nc(Nc3ccc(N4CCN(CC)CC4)cc3)ncc2F)c1 [Compound 39] |  |  | 
6 |  |  | 0.106 | 105 | 11.1 | C=CC(=O)Nc1cccc(C(F)(F)c2nc(Nc3ccc(N4CCN(C)CC4)cc3)ncc2C)c1 [Compound 37] |  |  | 
7 |  |  | 1.63 | 7.2 | 11.8 | C/C=C/C(=O)Nc1cccc(C(F)(F)c2nc(Nc3ccc(N4CCN(CC)CC4)cc3)ncc2F)c1 [Compound 42] |  |  | 
8 |  |  | 0.026 | 107 | 2.73 | C=CC(=O)Nc1cccc(C(F)(F)c2nc(Nc3ccc(N4CCN(C)CC4)cc3)nc3[nH]ccc23)c1 [Compound 28a, N-(3-(difluoro(2-(4-(4-methylpiperazin-1-yl)phenylamino)-7H-pyrrolo[2,3-d]pyrimidin-4-yl)methyl)phenyl)acrylamide] |  |  | 
9 |  |  | 0.093 | 23.3 | 2.17 | C=CC(=O)Nc1cccc(C(F)(F)c2nc(Nc3ccc(N4CCN(C)CC4)c(F)c3)ncc2F)c1 [Compound 36] |  |  | 
10 |  |  | 0.026 | 466 | 12 | C=CC(=O)Nc1cccc(C(F)(F)c2nc(Nc3ccc(N4CCN(C)CC4)nc3)nc3[nH]ccc23)c1 [Compound 28b, N-(3-(difluoro(2-(6-(4-methylpiperazin-1-yl)pyridin-3-ylamino)-7H-pyrrolo[2,3-d]pyrimidin-4-yl)methyl)phenyl)acrylamide] |  |  | 
11 | 1.1 | 0.817 |  |  |  | C=CC(=O)Nc1cccc(Oc2nc(Nc3ccc(N4CCN(C)CC4)cc3OC)ncc2Cl)c1 [WZ4002, reference compound] | > 20 | > 6.7 | Active
12 |  |  | 0.038 | 113 | 4.37 | C=CC(=O)Nc1cccc(C(F)(F)c2nc(Nc3ccc(N4CCN(C)CC4)c(F)c3)ncc2OC)c1 [Compound 34] |  |  | 
13 |  |  | 0.341 | 11.2 | 3.81 | C=CC(=O)Nc1cccc(C(F)(F)c2nc(Nc3ccc(N4CCN(C)CC4)cc3)ncc2Cl)c1 [Compound 38] |  |  | 
14 | 1.1 | 0.97 | 0.029 | 85 | 2.46 | C=CC(=O)Nc1cccc(C(F)(F)c2nc(Nc3ccc(N4CCN(C)CC4)cc3)ncc2F)c1 [Compound 19, N-(3-(difluoro(5-fluoro-2-(4-(4-methylpiperazin-1-yl)phenylamino)pyrimidin-4-yl)methyl)phenyl)acrylamide] | > 6.7 | > 6.7 | Active
15 |  |  | 1.74 | 14.6 | 25.3 | C/C=C/C(=O)Nc1cccc(C(F)(F)c2nc(Nc3ccc(N4CCN(C)CC4)cc3)ncc2F)c1 [Compound 40] |  |  | 
16 |  |  | 0.03 | >657 | > 20 | C=CC(=O)Nc1cccc(C(F)(F)c2nc(Nc3ccc(N4CCN(C)CC4)nc3)ncc2OC)c1 [Compound 31] |  |  | 
17 |  |  | 0.062 | 58.4 | 3.61 | C=CC(=O)Nc1cccc(C(F)(F)c2nc(Nc3ccc(N4CCN(C)CC4)cc3)ncc2OC)c1 [Compound 35] |  |  | 
18 |  |  | 0.058 | 403 | 23.4 | C=CC(=O)Nc1cccc(C(F)(F)c2nc(Nc3ccc(N4CCN(C)CC4)cc3)nc3c2ccn3CO)c1 [Compound 27a, N-(3-(difluoro(7-(hydroxymethyl)-2-(4-(4-methylpiperazin-1-yl)phenylamino)-7H-pyrrolo[2,3-d]pyrimidin-4-yl)methyl)phenyl)acrylamide] |  |  | 
19 |  |  | 0.08 | 100 | 8.05 | C=CC(=O)Nc1cccc(C(F)(F)c2nc(Nc3ccc(N4CCN(C)CC4)c(F)c3)nc3[nH]ccc23)c1 [Compound 28c, N-(3-(difluoro(2-(3-fluoro-4-(4-methylpiperazin-1-yl)phenylamino)-7H-pyrrolo[2,3-d]pyrimidin-4-yl)methyl)phenyl)acrylamide] |  |  | 
20 |  |  | 0.03 | 974 | 28.8 | C=CC(=O)Nc1cccc(C(F)(F)c2nc(Nc3ccc(N4CCN(C)CC4)cc3OC)ncc2OC)c1 [Compound 63] |  |  | 
21 |  |  | 1.3 | >15.4 | > 20 | C=CC(=O)Nc1cccc(C(F)(F)c2nc(Nc3ccc(N4CCN(C)CC4)cc3OC)ncc2F)c1 [Compound 32] |  |  | 
